The NIST ThermoML archive (doi:10.1016/j.jct.2010.09.003)

Columns and labels:
[1] = Ring tensiometer
[2] = xn = mol fraction of the nth substance listed; details: Ring tensiometer

O [water]
[1]
Details	surface tension liquid-gas [mN/m]
283.15 K	74.47
298.15 K	72.06
308.15 K	70.41

OCCO [1,2-ethanediol] + O
[2]
Details	surface tension liquid-gas [mN/m]
283.15 K, x1 = 0.0078	73.5
283.15 K, x1 = 0.0132	72.59
283.15 K, x1 = 0.0216	71.19
283.15 K, x1 = 0.0334	69.9
283.15 K, x1 = 0.0498	68.63
283.15 K, x1 = 0.0632	67.15
283.15 K, x1 = 0.0875	64.99
283.15 K, x1 = 0.1152	63.9
283.15 K, x1 = 0.1436	62.16
283.15 K, x1 = 0.1635	60.8
283.15 K, x1 = 0.2002	59.26
283.15 K, x1 = 0.2509	57.72
283.15 K, x1 = 0.2895	56.46
283.15 K, x1 = 0.4112	54.53
283.15 K, x1 = 0.4753	53.16
283.15 K, x1 = 0.6668	51.62
283.15 K, x1 = 0.7562	50.82
283.15 K, x1 = 0.8958	49.84
298.15 K, x1 = 0.0083	71.18
298.15 K, x1 = 0.0144	70.41
298.15 K, x1 = 0.0246	69.25
298.15 K, x1 = 0.0351	68.12
298.15 K, x1 = 0.0466	66.95
298.15 K, x1 = 0.0556	66.14
298.15 K, x1 = 0.0899	63.74
298.15 K, x1 = 0.1042	62.68
298.15 K, x1 = 0.1342	61.16
298.15 K, x1 = 0.1624	59.99
298.15 K, x1 = 0.1989	58.5
298.15 K, x1 = 0.2499	56.89
298.15 K, x1 = 0.2996	55.65
298.15 K, x1 = 0.401	53.63
298.15 K, x1 = 0.4999	52.22
298.15 K, x1 = 0.65	50.65
298.15 K, x1 = 0.75	49.82
298.15 K, x1 = 0.8987	48.68
308.15 K, x1 = 0.008	69.14
308.15 K, x1 = 0.0141	68.26
308.15 K, x1 = 0.0253	66.81
308.15 K, x1 = 0.0353	65.67
308.15 K, x1 = 0.0511	64.1
308.15 K, x1 = 0.0556	63.7
308.15 K, x1 = 0.0905	61.09
308.15 K, x1 = 0.1113	59.86
308.15 K, x1 = 0.1445	58.26
308.15 K, x1 = 0.1602	57.62
308.15 K, x1 = 0.2132	55.84
308.15 K, x1 = 0.2485	54.9
308.15 K, x1 = 0.3201	53.39
308.15 K, x1 = 0.4126	51.95
308.15 K, x1 = 0.5054	50.84
308.15 K, x1 = 0.6501	49.52
308.15 K, x1 = 0.7406	48.84
308.15 K, x1 = 0.8875	47.91

CC#N [acetonitrile]
[1]
Details	surface tension liquid-gas [mN/m]
283.15 K	29.73
298.15 K	28.2
308.15 K	27.47

OCCO [1,2-ethanediol] + CC#N
[2]
Details	surface tension liquid-gas [mN/m]
283.15 K, x2 = 0.0102	47.92
283.15 K, x2 = 0.0202	46.5
283.15 K, x2 = 0.0349	44.85
283.15 K, x2 = 0.0488	41.85
283.15 K, x2 = 0.0611	41.1
283.15 K, x2 = 0.0851	39
283.15 K, x2 = 0.0936	38.18
283.15 K, x2 = 0.102	36.99
283.15 K, x2 = 0.1141	36.8
283.15 K, x2 = 0.126	35.72
283.15 K, x2 = 0.1413	34
283.15 K, x2 = 0.1561	33.22
283.15 K, x2 = 0.1765	32.67
283.15 K, x2 = 0.1902	32.45
283.15 K, x2 = 0.2426	32.01
283.15 K, x2 = 0.29	31.75
283.15 K, x2 = 0.3379	31.68
283.15 K, x2 = 0.3895	31.49
283.15 K, x2 = 0.4202	31.44
283.15 K, x2 = 0.5197	31.05
283.15 K, x2 = 0.7564	30.55
283.15 K, x2 = 0.9008	30.01
298.15 K, x2 = 0.0109	47.82
298.15 K, x2 = 0.0199	47.46
298.15 K, x2 = 0.0361	46.85
298.15 K, x2 = 0.072	45.45
298.15 K, x2 = 0.0845	44.97
298.15 K, x2 = 0.1012	44.23
298.15 K, x2 = 0.1402	42.7
298.15 K, x2 = 0.1599	40.49
298.15 K, x2 = 0.1992	40.13
298.15 K, x2 = 0.2569	37.76
298.15 K, x2 = 0.2999	36.35
298.15 K, x2 = 0.35	34.9
298.15 K, x2 = 0.4345	33
298.15 K, x2 = 0.4888	32.25
298.15 K, x2 = 0.5699	31.53
298.15 K, x2 = 0.6321	31.01
298.15 K, x2 = 0.7099	30.49
298.15 K, x2 = 0.7765	30.17
298.15 K, x2 = 0.8499	29.71
308.15 K, x2 = 0.0202	46.45
308.15 K, x2 = 0.0349	45.63
308.15 K, x2 = 0.0674	43.75
308.15 K, x2 = 0.0851	42.8
308.15 K, x2 = 0.1021	41.75
308.15 K, x2 = 0.1568	39.26
308.15 K, x2 = 0.1852	37.85
308.15 K, x2 = 0.1987	37.18
308.15 K, x2 = 0.2426	35.5
308.15 K, x2 = 0.2976	34.05
308.15 K, x2 = 0.4144	31.64
308.15 K, x2 = 0.4734	30.85
308.15 K, x2 = 0.5101	30.41
308.15 K, x2 = 0.6453	28.95
308.15 K, x2 = 0.7654	28.53
308.15 K, x2 = 0.9352	27.83

OCCO [1,2-ethanediol]
[1]
Details	surface tension liquid-gas [mN/m]
283.15 K	49.27
298.15 K	48.22
308.15 K	47.29

CC#N [acetonitrile] + O
[2]
Details	surface tension liquid-gas [mN/m]
283.15 K, x1 = 0.0051	70.6
283.15 K, x1 = 0.0101	67.18
283.15 K, x1 = 0.0151	64.36
283.15 K, x1 = 0.0217	61.23
283.15 K, x1 = 0.0298	57.99
283.15 K, x1 = 0.0377	55.36
283.15 K, x1 = 0.0486	52.34
283.15 K, x1 = 0.0593	49.47
283.15 K, x1 = 0.0871	44.54
283.15 K, x1 = 0.1011	42.3
283.15 K, x1 = 0.1431	38.03
283.15 K, x1 = 0.1615	35.51
283.15 K, x1 = 0.1847	34.35
283.15 K, x1 = 0.2068	33.9
283.15 K, x1 = 0.2327	33.51
283.15 K, x1 = 0.3098	32.89
283.15 K, x1 = 0.3971	32.56
283.15 K, x1 = 0.4878	32.29
283.15 K, x1 = 0.6557	32.06
283.15 K, x1 = 0.8056	31.26
283.15 K, x1 = 0.9592	29.83
298.15 K, x1 = 0.0149	62.36
298.15 K, x1 = 0.0298	55.92
298.15 K, x1 = 0.0516	49.39
298.15 K, x1 = 0.0653	45.96
298.15 K, x1 = 0.086	42.2
298.15 K, x1 = 0.095	40.54
298.15 K, x1 = 0.1023	39.63
298.15 K, x1 = 0.1227	37.97
298.15 K, x1 = 0.1403	36.42
298.15 K, x1 = 0.157	35.68
298.15 K, x1 = 0.1855	33.97
298.15 K, x1 = 0.195	34.11
298.15 K, x1 = 0.2541	32.92
298.15 K, x1 = 0.3256	32.34
298.15 K, x1 = 0.3959	31.68
298.15 K, x1 = 0.4851	31.45
298.15 K, x1 = 0.5913	30.95
298.15 K, x1 = 0.693	30.37
298.15 K, x1 = 0.7968	29.46
308.15 K, x1 = 0.0217	60.53
308.15 K, x1 = 0.0298	59
308.15 K, x1 = 0.0377	55.56
308.15 K, x1 = 0.0727	48.05
308.15 K, x1 = 0.0871	45.83
308.15 K, x1 = 0.1304	40.09
308.15 K, x1 = 0.1431	38.79
308.15 K, x1 = 0.1615	36.94
308.15 K, x1 = 0.1847	35.7
308.15 K, x1 = 0.2068	33.9
308.15 K, x1 = 0.2327	33.51
308.15 K, x1 = 0.3098	31.04
308.15 K, x1 = 0.3971	30.05
308.15 K, x1 = 0.4999	29.11
308.15 K, x1 = 0.6557	28.41
308.15 K, x1 = 0.7775	28.21
308.15 K, x1 = 0.9592	28.05
